Reference: ChEMBL document CHEMBL1201862, “PubChem BioAssay data set” (2004)
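1) Cells in 96-well plates. 2) Compound, 48 h, 5 concentrations. 3) Linear interpolation between surrounding doses. 4) Unreached endpoint = highest concentration. At the GI50, growth is halved.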 Activity calls are given as the source filed them. Cut-off read from the data, not from the text of the source: active = GI50 up to about 1.1 µM and inactive = higher.

Assays:
Experiment in all cases: NCI anticancer screen, dose series, 48 h
SK-MEL-2 = test system: SK-MEL-2
NCI-H460 = test system: NCI-H460
OVCAR-5 = test system: OVCAR-5
RPMI-8226 = test system: RPMI-8226
SW-620 = test system: SW-620
EKVX = test system: EKVX
IGROV-1 = test system: IGROV-1
SF-539 = test system: SF-539
SK-MEL-5 = test system: SK-MEL-5
HCT-116 = test system: HCT-116
RXF 393 = test system: RXF 393
OVCAR-3 = test system: OVCAR-3
UACC-62 = test system: UACC-62
SF-268 = test system: SF-268
SNB-19 = test system: SNB-19
OVCAR-4 = test system: OVCAR-4
KM12 = test system: KM12
UACC-257 = test system: UACC-257
SK-OV-3 = test system: SK-OV-3
CAKI-1 = test system: CAKI-1

Measured: GI50

BrC1=CCC23CC=C(Br)[C@H]4CC2(COC3)C[C@@H]1O4 (some centres undefined)
inactive: SK-MEL-2 54.7 µM | NCI-H460 48 µM | OVCAR-5 21.2 µM | RPMI-8226 39.6 µM | SW-620 55 µM | EKVX > 100 µM | IGROV-1 > 100 µM | SF-539 84.9 µM | SK-MEL-5 > 100 µM | HCT-116 29.2 µM | RXF 393 32 µM | OVCAR-3 63.5 µM | UACC-62 46.1 µM | SF-268 16.9 µM | SNB-19 37.9 µM | OVCAR-4 27 µM | KM12 54.2 µM

O=C(/C=C/c1ccc2c(c1)OCO2)Cc1nc2ccccc2[nH]c1=O
inactive: SK-MEL-2 22 µM | NCI-H460 22.6 µM | OVCAR-5 22.9 µM | UACC-257 25.4 µM | RPMI-8226 28.1 µM | SW-620 30.4 µM | EKVX 31.9 µM | IGROV-1 21 µM | SK-OV-3 18.6 µM | SF-539 75 µM | CAKI-1 16.8 µM | SK-MEL-5 32.6 µM | HCT-116 22.5 µM | RXF 393 17.9 µM | OVCAR-3 27.3 µM | UACC-62 6.76 µM | SF-268 18.4 µM | SNB-19 24.2 µM | KM12 18.9 µM

C[C@]12CCC3c4ccc(OC(=O)c5ccccc5)cc4CC[C@H]3C1CC[C@@H]2OC(=O)C12OC1CCC2=O (some centres undefined)
inactive: SK-MEL-2 7.94 µM | NCI-H460 4.26 µM | OVCAR-5 8.38 µM | UACC-257 5.81 µM | RPMI-8226 4.23 µM | SW-620 2.64 µM | EKVX 6.61 µM | IGROV-1 4.63 µM | SK-OV-3 15.8 µM | SF-539 2.34 µM | SK-MEL-5 4.69 µM | HCT-116 3.03 µM | RXF 393 2.41 µM | OVCAR-3 3.13 µM | UACC-62 15.6 µM | SF-268 2.68 µM | SNB-19 20.5 µM | OVCAR-4 5.41 µM | KM12 6.93 µM

O=C(O)c1cc2cc(OCc3ccccc3)ccc2[nH]1
inactive: SK-MEL-2 61.7 µM | NCI-H460 > 100 µM | OVCAR-5 > 100 µM | UACC-257 5.06 µM | RPMI-8226 > 100 µM | SW-620 > 100 µM | EKVX > 100 µM | IGROV-1 > 100 µM | SK-OV-3 > 100 µM | SF-539 > 100 µM | CAKI-1 > 100 µM | SK-MEL-5 > 100 µM | HCT-116 > 100 µM | RXF 393 > 100 µM | OVCAR-3 > 100 µM | UACC-62 > 100 µM | SF-268 > 100 µM | SNB-19 73.6 µM | KM12 > 100 µM
